In publication PMC2999418, “Biological Activity and Binding Site Characteristics of the PA1b Entomotoxin on Insects from Different Orders” (Journal of Insect Science, 2007):
Like-named read-outs stand apart in the source and are kept apart here.

What was measured:
Aphis gossypii = test: Aphid growth and toxicity assay on artificial diet with toxin; type: in vivo; details: 1000 µg.ml^-1 in artificial diet
Description: (§1) Growth and toxicity assays were carried out on the aphids Aphis gossypii, Myzus persicae and Acyrthosiphon pisum, Hemiptera, according to Rahbé and Febvay ([1993]). Larvae of the fruit fly Drosophila melanogaster, Diptera, were provided by Dr. Allemand (UMR 5558 CNRS-UCBL, Lyon, France).
(§2) All toxicity assays were carried out using a mixture of PA1b isoforms (98% purity by HPLC). All tests were performed on at least 30 insects for assays and for control test (without toxin), except for the three aphid species (50 insects) and for Trichogramma (more than 300 eggs by assays). When adults were used, the insects were synchronized at the imaginal molt. The statistical analyses were performed using the JMP software (SAS, Grégy-sur-Yerres FRA).
(§3) Figure 2. Effects of PA1b on three aphid species. Tests were carried out with artificial diet supplemented with the toxin at increasing concentrations, and mortality of the insects was monitored daily (relative larval survival is used in the graph). Circle : A. pisum; Square : M. persicae; Triangle : A. gossypii.

Acyrthosiphon pisum = test: as above; type: in vivo; details: after six days feeding
Description: as §1, §2, §3

Myzus persicae = test: as above; type: in vivo; details: doses up to 1000 µg.ml^-1 in artificial diet
Description: as §1, §2, §3

[1] = target: PA1b binding protein on membrane extracts; details: ref Gressent et al (2003), cited from earlier work
From the text: Table 1. Affinity (Kd) and relative abundance (Bmax) of the PA1b binding protein on membrane extracts from different insect species and strains. | column: Kd (nM); Bmax (pmol/mg of protein) || Data obtained from competition experiments, using the purified […] isoform as competitor, are shown in Table 1. PA1b binding activity was present in all insect species, except for the resistant weevil strains and the pea specific pest Bruchus pisorum, regardless of the sensitivity or insensitivity of these insects to PA1b toxicity, as evaluated from our insect bioassays. […] The relative abundance of the binding sites was also slight ...

[2] = test system: midgut extracts from sensitive or resistant S. oryzae; details: ref Delobel and Rahbé, personnal communication; cited from earlier work
From the text: Stating that the binding activity is widely present, while the toxicity is not, directly implies that other factors strongly influence the toxin toxicity. Pre-binding effects, such as toxin stability in the insect digestive tract, have been commonly described, either for bacterial toxins ([Keller et al. 1996]) or enzyme inhibitors ([Girard et al. 1998]). Although the structural features of PA1b, such as its cystine-knot core ([Jouvensal et al. 2003]), are known to confer high thermal, chemical and proteolytic stability ([Delobel et al. 1998]) the latter point was investigated using commercial ...

A. famigatus = test: Antifungal test, fungal growth; type: cell-based; details: increasing toxin concentration up to 64 µg-ml^-1, 24 and 48 hours
Description: (§4) A possible antimicrobial and antifungal activity of PA1b was next tested on four bacterial and three fungal species. The experiments were done using an increasing toxin concentration, up to 64 µg-ml^-1.

C. glabrata = test: Antifungal test, fungal growth; type: cell-based; details: increasing toxin concentration up to 64 µg-ml^-1, 24 and 48 hours
Description: as §4

C. albicans = test: Antifungal test, fungal growth; type: cell-based; details: increasing toxin concentration up to 64 µg-ml^-1, 24 and 48 hours
Description: as §4

Drosophila melanogaster = details: cited from earlier work
Description: However, diet is not sufficient alone to explain insensitivity, as the three aphid species tested were assayed on the same artificial diet with very different results. We can thus suppose ...

Tribolium castaneum = test: Red flour beetle adult toxicity test, toxin mixed into diet; type: in vivo; details: 1000 µg per g of food, feeding for 15 days
Description: The red flour beetle Tribolium castaneum (Coleoptera), was provided by François Bonneton (Centre de Génétique Moléculaire Cellulaire, Lyon, France). Tests were performed on adults by mixing the toxin into the diet (wheat flour 95%, yeast extract 5%).
as §2

[3] = target: PA1b binding protein on membrane extracts; test: 125I-PA1b binding (competition) on insect membrane extracts; parameters: species or system Bruchus pisorum; details: B. pisorum membrane extracts; competition with purified 3741 isoform
Description: (§5) The isolation of membrane proteins for binding studies was performed as described by Gressent et al. ([2003]). For PA1b degradation tests, insect extracts were prepared as follows, 1 g of insects were ground with a mortar and pestle in liquid nitrogen. The resulting powder was resuspended in 2 ml of extraction buffer (20 mM Tris-HCl pH 8; 0.25 M sucrose; 2 mM MgCl2). The slurry was centrifuged for 2 min at 1000 g, and the supernatant was stored at -2O°C until required. All the operations were performed at 4°C.
(§6) The peptidic toxin PA1b-3471 isoform was labelled with I^125 to a specific radioactivity of about 900 Ci.mmor^-1, and then used for binding studies with membrane extracts, according to Gressent et al. ([2003]).
(§7) PA1b binding activity was present in all insect species, except for the resistant weevil strains and the pea specific pest Bruchus pisorum, regardless of the sensitivity or insensitivity of these insects to PA1b toxicity, as evaluated from our insect bioassays. […] The relative abundance of the binding sites was also slightly different in this group of species, varying from 10 pmol/mg of protein for T. pretiosum to a maximum of 79 pmol/mg of protein for M. persicae.

[4] = target: PA1b binding protein on membrane extracts; test: as above; parameters: species or system Myzus persicae; details: M. persicae membrane extracts; competition with purified 3741 isoform
Description: as §5, §6, §7

ASCNGVCSPFEMPPCGTSACRCIPVGLVIGYCR NPSG (bicyclic or more) [PA1b, plant peptide of 37 amino acids purified from pea (Pisum sativum) seeds; entomotoxic cystine-knot peptide with three disulfide bonds]
lethality (Aphis gossypii): 37%
mortality (Acyrthosiphon pisum; 150 µg.ml^-1 in artificial diet): 57%
mortality (Acyrthosiphon pisum; 500 µgml^-1 in artificial diet): total
mortality (Myzus persicae): no mortality
Kd / binding ([1]; S. oryzae resistant strains Mex1, GV, China, ISOR3, membrane extracts): no binding detectable
Kd ([1]; S. oryzae strains WAA42, Benin, Bouriz, membrane extracts): 0.002 to 0.0045 µM
activity of midgut extracts on PA1b [2]: do not show any activities on PA1b
effect on fungal growth (A. famigatus): no effect was detected
effect on fungal growth (C. glabrata): no effect was detected
effect on fungal growth (C. albicans): no effect was detected
toxicity to larvae grown on a fruit-based mixture (Drosophila melanogaster; fruit-based mixture diet, dose similar to that used on other insects, delayed larval development, increased larval mortality, ref Gressent, unpublished results): significantly toxic
sensitivity to the toxin (Drosophila melanogaster; ref Delobel et al.1998): insensitive
effects on adults (Tribolium castaneum): no effects were detectable
survival of adults (Tribolium castaneum): all insects survived
Kd / binding [3]: no binding detectable
Kd [4]: 0.062 µM
